Experimental data taken from patent US9809537B2, “Glycosidase inhibitors and uses thereof” (Alectos Therapeutics Inc., priority 2012, dated 2017).
pKi: −log10 of the molar value.

Columns and labels:
human O-GlcNAcase = biological target: T1, human O-GlcNAcase (Homo sapiens, UniProt O60502); experiment: Fluorescence-based assay for KI values for inhibition of O-GlcNAcase activity; assay type: biochemical; conditions: purified human O-GlcNAcase, 4-methylumbelliferyl GlcNAc substrate, pH 7.0, Cheng-Prusoff; read-out: Fluorescence-based hOGA Ki
T1 sequence (O60502 1-916): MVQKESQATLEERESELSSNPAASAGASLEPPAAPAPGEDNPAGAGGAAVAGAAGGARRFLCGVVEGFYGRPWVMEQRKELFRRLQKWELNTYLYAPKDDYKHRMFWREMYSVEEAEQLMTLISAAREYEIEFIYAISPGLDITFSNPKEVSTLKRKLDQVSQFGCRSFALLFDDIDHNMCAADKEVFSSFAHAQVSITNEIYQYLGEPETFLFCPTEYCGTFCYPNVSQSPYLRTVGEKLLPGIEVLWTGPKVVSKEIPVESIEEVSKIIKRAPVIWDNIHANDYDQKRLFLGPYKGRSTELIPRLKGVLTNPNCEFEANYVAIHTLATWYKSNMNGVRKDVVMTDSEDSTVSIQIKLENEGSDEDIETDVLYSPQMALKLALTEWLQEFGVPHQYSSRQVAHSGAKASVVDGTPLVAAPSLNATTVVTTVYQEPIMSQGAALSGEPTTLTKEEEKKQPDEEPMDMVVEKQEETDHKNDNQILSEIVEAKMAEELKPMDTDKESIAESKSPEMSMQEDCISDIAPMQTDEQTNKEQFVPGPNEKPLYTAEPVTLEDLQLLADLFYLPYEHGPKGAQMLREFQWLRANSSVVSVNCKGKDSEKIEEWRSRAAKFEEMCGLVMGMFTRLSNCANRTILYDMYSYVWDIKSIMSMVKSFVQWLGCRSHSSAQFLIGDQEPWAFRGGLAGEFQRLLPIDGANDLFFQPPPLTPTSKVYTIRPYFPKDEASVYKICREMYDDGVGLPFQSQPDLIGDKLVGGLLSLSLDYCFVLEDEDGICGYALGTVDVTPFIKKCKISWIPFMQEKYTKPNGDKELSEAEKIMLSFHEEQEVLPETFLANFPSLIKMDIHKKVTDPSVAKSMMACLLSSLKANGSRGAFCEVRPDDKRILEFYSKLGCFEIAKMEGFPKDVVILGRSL
Method: Assay for Determination of KI Values for Inhibition of O-GlcNAcase Activity
Experimental Procedure for Kinetic Analyses:
Enzymatic reactions were carried out in a reaction containing 50 mM NaH2PO4, 100 mM NaCl and 0.1% BSA (pH 7.0) using 2 mM 4-Methylumbelliferyl N-acetyl-β-D-glucosaminide dihydrate (Sigma M2133) dissolved in ddH2O, as a substrate. The amount of purified human O-GlcNAcase enzyme used in the reaction was 0.7 nM. Test compound of varying concentrations was added to the enzyme prior to initiation of the reaction. The reaction was performed at room temperature in a 96-well plate and was initiated with the addition of substrate. The production of fluorescent product was measured every 60 sec for 45 min with a Tecan Infinite M200 plate-reader with excitation at 355 nm and emission detected at […], with 4-Methylumbelliferone (Sigma M1381) used to produce a standard curve. The slope of product production was determined for each concentration of compound tested and plotted, using standard curve fitting algorithms for sigmoidal dose response curves. The values for a four parameter logistic curve fit of the data were determined.
KI values were determined using the Cheng-Prusoff equation; the Km of O-GlcNAcase for substrate was 0.2 mM.

[1] = Apparent permeability (Papp), bi-directional transport; assay type: in vitro ADME; conditions: pig, LLC-PK1, t=3 h, average of A to B and B to A, read-out: Papp LLC-PK1 cells
Method: Assay for Determination of Apparent Permeability (Papp)
Bi-directional transport is evaluated in LLC-PK1 cells in order to determine apparent permeability (Papp). LLC-PK1 cells can form a tight monolayer and therefore can be used to assess vectorial transport of compounds from basolateral to apical (B→A) and from apical to basolateral (A→B).
To determine Papp, LLC-PK1 cells are cultured in 96-well transwell culture plates (Millipore). Solutions containing the test compounds (1 μM) are prepared in Hank's Balanced Salt Solution with 10 mM HEPES. Substrate solution (150 μL) is added to either the apical (A) or the basolateral (B) compartment of the culture plate, and buffer (150 μL) is added to the compartment opposite to that containing the compound. At t=3 h, 50 μL samples are removed from both sides of monolayers dosed with test compound and placed in 96 well plates, scintillant (200 μL) or internal standard (100 μL labetolol 1 μM) is added to the samples and concentration is determined by liquid scintillation counting in a MicroBeta Wallac Trilux scintillation counter (Perkin Elmer Life Sciences, Boston, Mass.) or by LCMS/MS (Applied Biosystems SCIEX API 5000 triple quadruple mass spectrometer). [^3H]Verapamil (1 μM) is used as the positive control. The experiment is performed in triplicate.
The apparent permeability, Papp, is calculated by the following formula for samples taken at t=3 h:
[formula] Where: Volume of Receptor Chamber is 0.15 mL; Area of membrane is 0.11 cm^2; the Initial Concentration is the sum of the concentration measured in the donor plus concentration measured in receiver compartments at t=3 h; A in Concentration is concentration in the receiver compartment at 3 h; and A in Time is the incubation time (3×60×60=10800 s). Papp is expressed as 10^−6 cm/s. The Papp (LLC-PK1 cells) are the average of the Papp for transport from A to B and Papp for transport from B to A at t=3 h: […]

SMILES	pKi (human O-GlcNAcase)	Papp at 3 h, 1 μM [1] [×10⁻⁶ cm/s]
CCCCN1C(CNC(C)=O)[C@@H](O)[C@H](O)[C@H]1CO (stereo partly drawn) [reference compound]	5.99	–
CC(=O)NC[C@@H]1[C@@H](O)[C@H](O)[C@@H](CO)N1Cc1ccccn1 [Example 8, N-(((2R,3R,4R,5R)-3,4-dihydroxy-5-(hydroxymethyl)-1-(pyridin-2-ylmethyl)pyrrolidin-2-yl)methyl)acetamide]	5.52	–
CC(=O)NC[C@H]1N[C@H](CO)[C@@H](O)[C@@H]1O [reference compound]	6.97	–
CNC(=O)C[C@@H]1[C@@H](O)[C@H](O)[C@@H](CO)N1CCCc1ccccc1 [Example 10, 2-((2R,3R,4R,5R)-3,4-dihydroxy-5-(hydroxymethyl)-1-(3-phenylpropyl)pyrrolidin-2-yl)-N-methylacetamide]	7.26	–
CC(=O)NC[C@@H]1[C@@H](O)[C@H](O)[C@@H](CO)N1CCc1ccc(-c2ccccc2)cc1 [Example 4, N-(((2R,3R,4R,5R)-1-(2-([1,1′-biphenyl]-4-yl)ethyl)-3,4-dihydroxy-5-(hydroxymethyl)pyrrolidin-2-yl)methyl)acetamide]	7.10	4.4
CCNC(=O)C[C@@H]1[C@@H](O)[C@H](O)[C@@H](CO)N1CCC(c1ccccc1)c1ccccc1 [Example 12, 2-((2R,3R,4R,5R)-1-(3,3-diphenylpropyl)-3,4-dihydroxy-5-(hydroxymethyl)pyrrolidin-2-yl)-N-ethylacetamide]	7.22	–
CCNC(=O)C[C@@H]1[C@@H](O)[C@H](O)[C@@H](CO)N1CCCc1ccc(OC)cc1 [Example 11, 2-((2R,3R,4R,5R)-3,4-dihydroxy-5-(hydroxymethyl)-1-(3-(4-methoxyphenyl)propyl)pyrrolidin-2-yl)-N-ethylacetamide]	6.88	–
CC(=O)NC[C@@H]1[C@@H](O)[C@H](O)[C@@H](CO)N1CCCc1ccccc1 [Example 1, N-(((2R,3R,4R,5R)-3,4-dihydroxy-5-(hydroxymethyl)-1-(3-phenylpropyl)pyrrolidin-2-yl)methyl)acetamide]	6.43	–
CC(=O)NC[C@@H]1[C@@H](O)[C@H](O)[C@@H](CO)N1CCCCc1ccccc1 [Example 5, N-(((2R,3R,4R,5R)-3,4-dihydroxy-5-(hydroxymethyl)-1-(4-phenylbutyl)pyrrolidin-2-yl)methyl)acetamide]	6.76	< 1.6
CC(=O)NC[C@@H]1[C@@H](O)[C@H](O)[C@@H](CO)N1Cc1cccnc1 [Example 7, N-(((2R,3R,4R,5R)-3,4-dihydroxy-5-(hydroxymethyl)-1-(pyridin-3-ylmethyl)pyrrolidin-2-yl)methyl)acetamide]	5.57	–
CNC(=O)C[C@@H]1[C@H](O)[C@H](O)[C@@H](CO)N1CCCc1ccccc1 [Example 13, 2-((2R,3S,4R,5R)-3,4-dihydroxy-5-(hydroxymethyl)-1-(3-phenylpropyl)pyrrolidin-2-yl)-N-methylacetamide]	8.08	–
COc1ccc(CCCN2[C@H](CO)[C@@H](O)[C@H](O)[C@H]2CNC(C)=O)cc1 [Example 2, N-(((2R,3R,4R,5R)-3,4-dihydroxy-5-(hydroxymethyl)-1-(3-(4-methoxyphenyl)propyl)pyrrolidin-2-yl)methyl)acetamide]	6.97	2.6
CC(=O)NCC1[C@@H](O)[C@H](O)[C@@H](CO)N1CCc1ccccc1 (stereo partly drawn) [reference compound]	6.46	–
CC(=O)NC[C@@H]1[C@@H](O)[C@H](O)[C@@H](CO)N1CCC(c1ccccc1)c1ccccc1 [Example 6, N-(((2R,3R,4R,5R)-1-(3,3-diphenylpropyl)-3,4-dihydroxy-5-(hydroxymethyl)pyrrolidin-2-yl)methyl)acetamide]	7.39	–
CCCN1C(CNC(C)=O)[C@@H](O)[C@H](O)[C@H]1CO (stereo partly drawn) [reference compound]	5.69	–
CC(=O)NC[C@@H]1[C@@H](O)[C@H](O)[C@@H](CO)N1Cc1ccc(-c2ccccc2)cc1 [Example 9, N-(((2R,3R,4R,5R)-1-([1,1′-biphenyl]-4-ylmethyl)-3,4-dihydroxy-5-(hydroxymethyl)pyrrolidin-2-yl)methyl)acetamide]	5.34	–
CCCCCCN1C(CNC(C)=O)[C@@H](O)[C@H](O)[C@H]1CO (stereo partly drawn) [reference compound]	6.21	< 1.6
